These results are taken from PMC9393165 (Scientific Reports, 2022).

Molecules are shown by their SMILES.

For series [1] the following is noted: diltiazem 30 mg three times daily; day 7 after KT; CYP3A5 expressers; cited from earlier work.
Series [2] is described as follows: Early-morning blood pressure and pulse rate in kidney transplant recipients. The series is classed as in vivo, human. Particulars: for Diastolic blood pressure / Pulse rate: diltiazem 30 mg every 12 h. Here is the method:
All patients received a fixed dose of omeprazole 40 mg/day.
For calculation of AUC/D and C0/D, values of AUC and C0 were dose-adjusted by dividing the observed values by the dose recorded on the day of blood collection. Early-morning blood pressures were measured on the same day of blood collection for pharmacokinetic analysis by a ward nurse as part of a routine examination, during rest in a seated position with a calibrated and well-maintained automatic sphygmomanometer. Delayed graft function (DGF) was defined as failure of the kidney graft to function immediately, with the need for dialysis in the first 7 days post-KT. Episode of biopsy-proven acute rejection (BPAR) during 3 months post-KT was diagnosed based on histologic findings in indication kidney graft biopsy according to Banff 2015 criteria.

The mark [3] stands for this setting: day 3 post-transplantation, CYP3A5 expressers (n = 11), mean ± SD.
[4] abbreviates: day 3 post-transplantation, CYP3A5 non-expressers (n = 9), mean ± SD.
Setting [5] is: day 7 post-transplantation, CYP3A5 expressers (n = 11), mean ± SD.
[6] abbreviates: day 7 post-transplantation, CYP3A5 non-expressers (n = 9), mean ± SD.

For the compound `COc1ccc([C@@H]2Sc3ccccc3N(CCN(C)C)C(=O)[C@@H]2OC(C)=O)cc1` [Diltiazem], the “Effect of diltiazem coadministration on tacrolimus dose-adjusted trough concentration (C0/D)” value in series [1] is given as “Significantly higher”. Besides, the Diastolic blood pressure in series [2] (day 1 post-transplantation, CYP3A5 expressers (n = 11), mean ± SD) is given as 89.2 ± 13.3 mmHg; in series [2] (day 1 post-transplantation, CYP3A5 non-expressers (n = 9), mean ± SD), 87.4 ± 14.8 mmHg; in series [2] (setting [3]), 86.8 ± 13.5 mmHg; in series [2] (setting [4]), 84.3 ± 14.0 mmHg; in series [2] (setting [5]), 77.8 ± 13.3 mmHg; in series [2] (setting [6]), 81.0 ± 7.3 mmHg. The Pulse rate was 82.0 (74.0, 86.0) bpm in series [2] (day 1 post-transplantation, CYP3A5 expressers (n = 11), median (IQR)); 82.0 (73.0, 86.0) bpm in series [2] (day 1 post-transplantation, CYP3A5 non-expressers (n = 9), median (IQR)); 86.6 ± 15.4 bpm in series [2] (setting [3]); 82.4 ± 7.2 bpm in series [2] (setting [4]); 80.2 ± 11.2 bpm in series [2] (setting [5]); 81.8 ± 8.6 bpm in series [2] (setting [6]). Besides, the “Effects on blood pressure” value in series [2] (diltiazem 60 mg/day, first week post-KT) was “No significant effects on blood pressure”.
